The test system of assay [1] is ERK1/2 phosphorylation in MV-4-11 cells. The experiment in a line: Western blot of phosphorylated ERK1/2. Particulars: compound 2 alone, 4 hours, relative to DMSO treated control cells. In kind it is cell-based. Here is the method: (§1) Western blotting: Cells were lysed on ice for 10 minutes with Thermo Fisher RIPA lysis buffer with protease and phosphatase inhibitors. The cells were centrifuged at 4° for 10 minutes with a microcentrifuge. The supernatant was transferred to pre-chilled microcentrifuge tube and protein concentration of the lysate was measured using BCA method. Cell lysate supematants of equal-amount of proteins were used for immunoblotting.
(§2) FIG. 3A is a Western blot showing compound 2 and gilteritinib combination induced downregulation of ERK1/2 phosphorylation in MOLM-14 cells. FIG. 3B is a bar plot quantifying the results of […]. The cell lines, MOLM14 and MV-4-11 were split onto a 6 well plate and treated with compound 2 and gilteritinib alone, and in combination as indicated (FIGS. 3A/B and 4A/B). After 4 hours treatment, cells were lysed and immunoblotted for phosphorylated ERK1/2. […] The phosphorylated ERK1/2 bands were quantified by using Bio-Rad Image Lab software and normalized by total ERK.
FIG. 4A is a Western blot showing compound 2 and gilteritinib combination induced downregulation of ERK1/2 phosphorylation in MV-4-11 cells. FIG. 4B is a bar plot quantifying the results of […]. […] The phosphorylated ERK1/2 bands were quantified by using Bio-Rad Image Lab software and normalized by total ERK.
For orientation: Immunoblotting shows a protein as a band on a membrane.

The test system of assay [2] is MOLM-13 subcutaneous CDX model. The experiment in a line: In vivo tumor growth, FLT3-ITD mutated AML subcutaneous CDX model MOLM-13. Particulars: compound 2 15 or 30 mg/kg PO QD; groups terminated on treatment day 12. Also noted: species or system Balb/c nude mice. As for the experimental part: The vehicle/control article, 100 mM acetic acid in deionized water, with pH adjustment to 4.8-5.0, was prepared and stored under ambient conditions throughout the 42-day administration in mice.
The test article, compound 2, was freshly prepared in vehicle of 100 mM acetic buffer weekly and stored under ambient conditions. The combination agent gilteritinib was prepared weekly in vehicle of 0.5% Methyl Cellulose & 0.1% Tween 80 Solution weekly and stored under ambient conditions.
Female Balb/c nude mice were between 6-8 weeks of age at the time of implantation. Mice were hosted in a special pathogen-free (SPF) environment of the vivarium facility and acclimated to their new environment for at least 3 days prior to initiation of any experiments according to IACUC protocol.
MOLM-13 was AML cell line that harbored a FLT3-ITD mutation. MOLM-13 cells were cultured in medium containing RPMI1640 plus 10% Fetal Bovine Serum (FBS) and 1% Antibiotic-Antimycotic (AA), at 37° C. in an atmosphere of 5% CO2 in air. The medium was renewed every 2 to 3 days and tumor cells were routinely sub-cultured at a confluence of 80-90% by trypsin-EDTA. Cells growing in an exponential growth phase were harvested and counted for inoculation. […] Animal health and tumor growth were monitored daily. Tumor volume was measured twice a week by caliper when tumors were palpable and measurable. […]

In assay [3] the test system is ERK1/2 phosphorylation in MOLM-14 cells. The experiment in a line: Western blot of phosphorylated ERK1/2. Particulars: compound 2 alone, 4 hours, relative to DMSO treated control cells. In kind it is cell-based. As for the experimental part:
as §1, §2

Consider `COCOC[C@H]1C[C@H]2COc3c(Sc4cnc(N5CCC6(CC5)CO[C@@H](C)[C@H]6N)c(CO)n4)ccnc3N2C1` [compound 2, (3-((3S,4S)-4-amino-3-methyl-2-oxa-8-azaspiro[4.5]decan-8-yl)-6-(((6aS,8S)-8-((methoxymethoxy)methyl)-6a,7,8,9-tetrahydro-6H-pyrido[3,2-b]pyrrolo[1,2-d][1,4]oxazin-4-yl)thio)pyrazin-2-yl)methanol], for which the “inhibition of ERK1/2 phosphorylation (immunoblot)” value in assay [1] is on record as “about 50%”; in assay [3] it was “about 30%”. Moreover, the “tumor growth under monotherapy (group termination)” value in assay [2] was “rapid tumor growth”.

Values taken from patent US20240285624A1, “ERK1/2 OR SHP2 INHIBITORS AND FLT3 INHIBITORS COMBINATION THERAPY” (Erasca, Inc., priority 2021, published 2024).
